How the values were obtained:
BIE cells = assay: Ki67 immunofluorescence (cell proliferation) in BIE cells; type: cell-based, bovine
Experimental: BMI-immortalized bovine lens epithelial cells (BIE cell line, produced in Roy Quinlan's Laboratory, University of Durham, UK), were seeded onto 13 mm round coverslips in 6-well tissue culture plates in 10% fetal calf serum (FCS)-supplemented tissue culture medium (Sigma-Aldrich, UK) and kept at 37° C., 5% CO2 overnight. The next morning, they were exposed to 1 μM CA4P diluted in 10% FCS-supplemented medium for 30 min, after which the cells were returned to 10% FCS-supplemented medium. After 48 h, the prevalence of Ki67 positive cells was assessed by immunofluorescence.
BIE cells on coverslips were rinsed three times in PBS, followed by a single 20 min fixation in a 1:1 mix of methanol and acetone, three rinses in PBS/0.2 g/L BSA/0.2 g/L Na Azide and a single 20 min blocking step in 10% goat serum (Sigma-Aldrich, UK) diluted in PBS/BSA/NaAzide. The cells were then exposed to primary antibody (Ki-67: mouse monoclonal, 1/100, MIB-1 (DAKO, Denmark)) for 1 h at room temperature, after which they were rinsed three times in PBS/BSA/NaAzide and exposed to secondary antibody (goat anti-mouse IgG FITC-conjugated, 1/100; DAPI, 1/1000 (Sigma-Aldrich, UK)) for 1 h at room temperature in the dark. After three last rinses in PBS/BSA/NaAzide, the cells were plated onto microscope slides (VWR International, Belgium) and examined using a Zeiss LSM 510 Meta confocal microscope and its associated software. Ki-67 positive cells were counted out of a total of between 200 and 500 cells per coverslip, for two coverslips for each of three independent repeats, and expressed as the average percentage of Ki-67 positive cells out of the total number of cells counted (as determined by DAPI staining). Significant differences between control and treated cells were assessed by Chi^2-test.

[1] = tested on: polymerized tubulin in primary bovine lens epithelial cells; assay: Anti-tubulin immunofluorescence of primary lens epithelial cells on the lens capsule; type: cell-based; settings: single 30 min treatment with 1 μM CA4P, at 30 min after start and up to 48 h after end of exposure (FIG. 5)
Source text: Bovine eyes were obtained from Coast and County Meat Group (Felling, UK) on the day of culling and lenses were dissected out of the eyes under a sterile tissue culture hood as described below. After generous dousing in 70% ethanol, eyes were cut open using a major surgical blade (Swann-Morton, UK) via a single cut, parallel and posterior to the cornea-conjunctiva limit. The eye was then inverted and the vitreous removed. The lens was freed from the ciliary fibers and immediately placed anterior face down in a SYLGARD-covered (Dow Corning, Germany) well of a 12-well tissue culture plate (Greiner Bio-One, UK). The posterior side of the lens capsule was cut in a Y-shape fashion by a thin scalpel and the resulting flaps pulled back and pinned onto the SYLGARD. The fiber mass was removed by gently rolling it off the anterior lens capsule, thus leaving most of the primary lens epithelial cell layer attached onto the anterior lens capsule. This primary lens epithelial cell layer was then cultured on its original lens capsule at 37° C., 5% CO2, in 0% FCS-supplemented tissue culture.
[…] Immediately after the end of the CA4P exposure and 48 h after the end of the CA4P exposure, the presence of polymerized tubulin in the primary lens epithelial cell layers was investigated by immunofluorescence. […]

[2] = 48 h after 30 min exposure to 1 μM CA4P

SMILES: COc1ccc(/C=C\c2cc(OC)c(OC)c(OC)c2)cc1OP(=O)(O)O [CA4P, combretastatin A-4 phosphate]
- nuclear morphology (BIE cells; 30 h after exposure (data not shown)): changes in nuclear morphology, as well as multinucleated cells were detected
- Ki67 negative (%) (BIE cells; [2]): 85.1 ± 5.7%
- Ki67 positive (%) (BIE cells; [2]): 14.9 ± 5.7%
- cell loss (BIE cells; by 48 h after exposure): cell loss is extensive
- polymerized tubulin (immunofluorescence) [1]: loss of polymerized tubulin

Reference: patent publication US20120220554A1, “Combretastatins for Prevention of Posterior Capsule Opacification” (OXIGENE, INC., priority 2010, published 2012)
